Where “and” joins values, the source holds several entries; their conditions need not be identical. Equal values may be shown once. Read-outs that look alike come from different tables or passages of the source.
Legend:
[1] = target: T1, TAS2R43 (Homo sapiens, UniProt P59537); assay: Calcium mobilization assay, HEK293T-Gα16gust44 cells expressing TAS2R43; details: for Response of TAS2R43: maximal concentration tested: sucralose 100 mM, neotame 30 µM, Ace-K 300 mM, RebA 4 mM, RebM 4 mM, mogroside V 5 mM, erythritol 200 mM, D-allulose 500 mM, thaumatin 100 mM
T1 sequence (P59537 1-309): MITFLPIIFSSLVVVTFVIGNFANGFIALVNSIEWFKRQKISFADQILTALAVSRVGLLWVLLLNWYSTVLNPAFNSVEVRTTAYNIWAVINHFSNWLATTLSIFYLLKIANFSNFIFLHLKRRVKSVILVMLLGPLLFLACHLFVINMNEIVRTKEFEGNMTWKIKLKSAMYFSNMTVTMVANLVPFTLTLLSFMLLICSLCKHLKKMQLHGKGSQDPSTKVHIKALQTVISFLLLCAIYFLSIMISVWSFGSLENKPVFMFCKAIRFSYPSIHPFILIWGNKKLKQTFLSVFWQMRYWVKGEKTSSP
Procedure: (§1) Different concentration ranges were tested depending on the injected sweet compound. […] All of the concentration-receptor combinations were measured in triplicate, and each experiment was repeated at least 3 times. The Ca^2+ change was expressed as a fractional change in fluorescent light intensity: ΔF/F = (F − F0)/F0, where F was the fluorescent light intensity at each point, and F0 was the value of fluorescent light emitted prior to stimulus application. To calculate dose–response relationships, the changes in fluorescence upon stimulus application were averaged, mock-subtracted and baseline-corrected. The resulting obtained dose–response data were adjusted by using a 4-parameter logistic equation.

[2] = target: T2, TAS1R2/TAS1R3 (Homo sapiens, UniProt Q7RTX0+Q8TE23); assay: Calcium mobilization assay, HEK293T-Gα16gust44 cells expressing the sweet taste receptor
T2 sequence (Q8TE23 20-839): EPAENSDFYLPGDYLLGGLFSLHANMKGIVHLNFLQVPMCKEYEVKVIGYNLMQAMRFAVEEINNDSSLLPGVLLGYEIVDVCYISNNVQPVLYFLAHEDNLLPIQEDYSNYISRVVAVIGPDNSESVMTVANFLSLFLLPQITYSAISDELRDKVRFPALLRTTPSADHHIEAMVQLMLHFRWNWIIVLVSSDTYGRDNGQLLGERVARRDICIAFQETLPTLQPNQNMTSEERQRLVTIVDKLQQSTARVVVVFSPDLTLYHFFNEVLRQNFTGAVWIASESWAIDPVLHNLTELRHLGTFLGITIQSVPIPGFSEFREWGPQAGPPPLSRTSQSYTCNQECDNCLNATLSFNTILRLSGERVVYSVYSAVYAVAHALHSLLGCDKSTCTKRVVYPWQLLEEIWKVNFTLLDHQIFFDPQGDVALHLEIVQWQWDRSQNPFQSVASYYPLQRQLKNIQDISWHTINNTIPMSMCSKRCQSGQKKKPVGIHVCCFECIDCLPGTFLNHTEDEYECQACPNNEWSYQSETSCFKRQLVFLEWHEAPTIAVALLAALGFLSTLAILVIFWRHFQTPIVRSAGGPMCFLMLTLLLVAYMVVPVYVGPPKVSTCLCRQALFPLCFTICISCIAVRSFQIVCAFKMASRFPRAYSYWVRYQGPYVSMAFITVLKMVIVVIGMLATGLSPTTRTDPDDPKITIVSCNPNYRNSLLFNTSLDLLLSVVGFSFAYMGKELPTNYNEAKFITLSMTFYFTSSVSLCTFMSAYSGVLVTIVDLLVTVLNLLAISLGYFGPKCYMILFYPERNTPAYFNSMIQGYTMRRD
T2 sequence (Q7RTX0 21-852): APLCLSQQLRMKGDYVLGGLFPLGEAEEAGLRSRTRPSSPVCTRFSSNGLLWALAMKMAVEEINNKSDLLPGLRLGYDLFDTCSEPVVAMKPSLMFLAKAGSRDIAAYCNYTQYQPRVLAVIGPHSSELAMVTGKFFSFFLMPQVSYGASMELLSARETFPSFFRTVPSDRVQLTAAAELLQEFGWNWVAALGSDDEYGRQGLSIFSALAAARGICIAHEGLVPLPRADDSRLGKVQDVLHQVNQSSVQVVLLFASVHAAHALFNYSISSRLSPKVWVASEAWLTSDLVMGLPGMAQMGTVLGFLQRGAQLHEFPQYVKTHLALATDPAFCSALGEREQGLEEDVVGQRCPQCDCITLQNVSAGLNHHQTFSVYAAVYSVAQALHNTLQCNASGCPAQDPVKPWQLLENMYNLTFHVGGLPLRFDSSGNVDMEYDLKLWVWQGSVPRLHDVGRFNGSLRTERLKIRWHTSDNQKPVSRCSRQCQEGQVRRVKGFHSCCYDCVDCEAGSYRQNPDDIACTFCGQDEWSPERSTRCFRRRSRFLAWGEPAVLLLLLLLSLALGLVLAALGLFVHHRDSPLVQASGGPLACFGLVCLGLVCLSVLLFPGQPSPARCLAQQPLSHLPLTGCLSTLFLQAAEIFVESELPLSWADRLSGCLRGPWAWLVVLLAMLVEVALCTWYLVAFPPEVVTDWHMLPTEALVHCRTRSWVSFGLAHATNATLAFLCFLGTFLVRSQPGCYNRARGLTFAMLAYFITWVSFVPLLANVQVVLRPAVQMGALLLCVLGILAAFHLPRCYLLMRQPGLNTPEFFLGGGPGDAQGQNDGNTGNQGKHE
Procedure: as §1

[3] = target: T3, TAS2R41 (Homo sapiens, UniProt P59536); assay: Calcium mobilization assay, HEK293T-Gα16gust44 cells expressing TAS2R41; details: maximal concentration tested: sucralose 100 mM, neotame 30 µM, Ace-K 300 mM, RebA 4 mM, RebM 4 mM, mogroside V 5 mM, erythritol 200 mM, D-allulose 500 mM, thaumatin 100 mM
T3 sequence (P59536 1-307): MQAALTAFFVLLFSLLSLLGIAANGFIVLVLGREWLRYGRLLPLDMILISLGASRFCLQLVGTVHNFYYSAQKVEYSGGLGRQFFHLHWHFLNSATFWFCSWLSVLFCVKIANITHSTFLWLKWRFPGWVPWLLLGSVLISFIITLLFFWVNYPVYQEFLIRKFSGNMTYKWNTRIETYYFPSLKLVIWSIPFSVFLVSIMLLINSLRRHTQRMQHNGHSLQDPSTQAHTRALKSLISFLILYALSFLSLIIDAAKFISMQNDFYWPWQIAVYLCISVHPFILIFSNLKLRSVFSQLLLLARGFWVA
Procedure: Different concentration ranges were tested depending on the injected sweet compound. […] All of the concentration-receptor combinations were measured in triplicate, and each experiment was repeated at least 3 times. The Ca^2+ change was expressed as a fractional change in fluorescent light intensity: ΔF/F = (F − F0)/F0, where F was the fluorescent light intensity at each point, and F0 was the value of fluorescent light emitted prior to stimulus application. To calculate dose–response relationships, the changes in fluorescence upon stimulus application were averaged, mock-subtracted and baseline-corrected. The resulting obtained dose–response data were adjusted by using a 4-parameter logistic equation. The half-maximal effective concentration (EC50) was calculated by using SigmaPlot software (Systat Software, San Jose, CA, USA) as described in supplemental Supplementary Figs. S1, S2, and S3.

[4] = target: T4, TAS2R10 (Homo sapiens, UniProt Q9NYW0); assay: Calcium mobilization assay, HEK293T-Gα16gust44 cells expressing TAS2R10; details: for Response of TAS2R10: maximal concentration tested: sucralose 100 mM, neotame 30 µM, Ace-K 300 mM, RebA 4 mM, RebM 4 mM, mogroside V 5 mM, erythritol 200 mM, D-allulose 500 mM, thaumatin 100 mM
T4 sequence (Q9NYW0 1-307): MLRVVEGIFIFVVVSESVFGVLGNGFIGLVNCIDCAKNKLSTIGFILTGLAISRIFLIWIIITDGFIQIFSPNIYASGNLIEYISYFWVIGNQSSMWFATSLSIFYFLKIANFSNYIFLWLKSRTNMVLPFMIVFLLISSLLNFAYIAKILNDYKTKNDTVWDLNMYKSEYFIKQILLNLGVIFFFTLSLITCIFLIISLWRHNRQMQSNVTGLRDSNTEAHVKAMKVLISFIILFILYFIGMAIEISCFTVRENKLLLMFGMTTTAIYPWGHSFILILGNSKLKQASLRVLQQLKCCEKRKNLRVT
Procedure: as §1

[5] = maximal signal amplitude, sweet compound alone
[6] = neotame in the presence of D-allulose 0 mM
[7] = read-out: EC50 value, sweet compound alone
[8] = mogroside V in the presence of thaumatin 0 µM
[9] = RebM in the presence of mogroside V 0 µM

Row | Molecule | Response of TAS2R43 [1] | Max ΔF/F0 [2, 5] | EC50 [2, 7] [µM] | Response of TAS2R41 [3] | Response of TAS2R10 [4] | also measured
1 | COC(=O)[C@H](Cc1ccccc1)NC(=O)[C@H](CC(=O)O)NCCC(C)(C)C [Neotame] | − | 0.16 ± 0.01 | 2.26 ± 0.23 | − | − | EC50 [2, 6]: 2.37 ± 0.34 µM; Max ΔF/F0 [2, 6]: 0.16 ± 0.01; Max ΔF/F0 ([2]; neotame in the presence of D-allulose 3 mM): 0.17 ± 0.01; Max ΔF/F0 ([2]; neotame in the presence of D-allulose 10 mM): 0.21 ± 0.01; Max ΔF/F0 ([2]; neotame in the presence of D-allulose 30 mM): 0.17 ± 0.00; increase in sweetness potency ([2]; neotame with addition of D-allulose (3 to 30 mM), leftward shift of dose–response curves): approximately 2.5 fold
2 | OC[C@@H](O)[C@@H](O)CO [Erythritol, erythritol] | − | 0.06 ± 0.01 |  | − | − | EC50 [2]: 56000 ± 10000 µM
3 | C[C@H](CC[C@@H](O[C@@H]1O[C@H](CO[C@@H]2O[C@H](CO)[C@@H](O)[C@H](O)[C@H]2O)[C@@H](O)[C@H](O)[C@H]1O[C@@H]1O[C@H](CO)[C@@H](O)[C@H](O)[C@H]1O)C(C)(C)O)[C@H]1CC[C@@]2(C)[C@@H]3CC=C4[C@@H](CC[C@H](O[C@@H]5O[C@H](CO[C@@H]6O[C@H](CO)[C@@H](O)[C@H](O)[C@H]6O)[C@@H](O)[C@H](O)[C@H]5O)C4(C)C)[C@]3(C)[C@H](O)C[C@]12C [Mogroside V, mogroside V] | − | 0.14 ± 0.01 | 23 ± 2 | − | − | concentration of saturation of the sweet taste receptor [2]: ~500 µM; decrease in the EC50 values ([2]; in the presence of thaumatin 0.3 to 10 µM): 3 fold; decrease in the EC50 value ([2]; mogroside V in the presence of 10 µM thaumatin): 4 fold; EC50 [2, 8]: 29 ± 4 µM; Max ΔF/F0 [2, 8]: 0.14 ± 0.01; Max ΔF/F0 ([2]; mogroside V in the presence of thaumatin 0.03 µM): 0.19 ± 0.01; Max ΔF/F0 ([2]; mogroside V in the presence of thaumatin 1 µM): 0.18 ± 0.04; Max ΔF/F0 ([2]; mogroside V in the presence of thaumatin 3 µM): 0.18 ± 0.01; Max ΔF/F0 ([2]; mogroside V in the presence of thaumatin 10 µM): 0.17 ± 0.01
4 | CC1=CC(=O)NS(=O)(=O)O1 [Ace-K, acesulfame-K] | §^b |  |  | − | − | EC50 [2]: 410 ± 94 µM
5 | O=C(CO)[C@H](O)[C@H](O)[C@H](O)CO [D-allulose] | + | 0.50 ± 0.12 |  | − | − | concentrations at which TAS2R43 was activated [1]: > 300 mM; activation of the sweet taste receptor by the compound alone ([2]; 3 to 30 mM): did not activate the sweet taste receptor

More lines, main results first:

Row | Response of TAS2R43 [1] | Max ΔF/F0 [2, 5] | EC50 [2, 7] [µM] | Response of TAS2R41 [3] | Response of TAS2R10 [4] | Molecule | also measured
6 | − | 0.16 ± 0.01 | 34 ± 2 | − | − | C=C1C[C@@]23CC[C@H]4[C@@](C)(CCC[C@@]4(C)C(=O)O[C@@H]4O[C@H](CO)[C@@H](O)[C@H](O[C@@H]5O[C@H](CO)[C@@H](O)[C@H](O)[C@H]5O)[C@H]4O[C@@H]4O[C@H](CO)[C@@H](O)[C@H](O)[C@H]4O)[C@@H]2CC[C@]1(O[C@@H]1O[C@H](CO)[C@@H](O)[C@H](O[C@@H]2O[C@H](CO)[C@@H](O)[C@H](O)[C@H]2O)[C@H]1O[C@@H]1O[C@H](CO)[C@@H](O)[C@H](O)[C@H]1O)C3 [RebM, Rebaudioside M] | EC50 [2, 9]: 36 ± 2 µM; Max ΔF/F0 [2, 9]: 0.17 ± 0.01; Max ΔF/F0 ([2]; RebM in the presence of mogroside V 0.03 µM): 0.16 ± 0.01; Max ΔF/F0 ([2]; RebM in the presence of mogroside V 1 µM): 0.18 ± 0.01; Max ΔF/F0 ([2]; RebM in the presence of mogroside V 3 µM): 0.17 ± 0.01; Max ΔF/F0 ([2]; RebM in the presence of mogroside V 5 µM): 0.12 ± 0.01; Max ΔF/F0 ([2]; RebM in the presence of mogroside V 10 µM): 0.12 ± 0.01
7 | − | 0.12 ± 0.01 |  | − | − | thaumatin | activation of the sweet taste receptor by the compound alone ([2]; concentrations less than 3 µM): unable to activate the sweet taste receptor on its own
8 | − | 0.13 ± 0.01 | 78 ± 11 | − | #^a | OC[C@H]1O[C@H](O[C@]2(CCl)O[C@H](CCl)[C@@H](O)[C@@H]2O)[C@H](O)[C@@H](O)[C@H]1Cl [Sucralose, sucralose] | concentration at which maximal signal amplitude is reached [2]: below 1 mM; Max ΔF/F0 ([2]; sucralose in the presence of Ace-K 0 µM): 0.13 ± 0.01; Max ΔF/F0 ([2]; sucralose in the presence of Ace-K 10 µM): 0.15 ± 0.01; Max ΔF/F0 ([2]; sucralose in the presence of Ace-K 30 µM): 0.12 ± 0.01; Max ΔF/F0 ([2]; sucralose in the presence of Ace-K 100 µM): 0.14 ± 0.01; EC50 ([4]; TAS2R10 EC50): 17000 µM and ≥ 3000 µM

— PMC11631053, “A receptor-based assay to study the sweet and bitter tastes of sweeteners and binary sweet blends: the SWEET project” (Chemical Senses, 2024)
